From ChEMBL document CHEMBL3822423 (J Med Chem, 2016)
≈ marks a conversion by molar mass, not a printed value. Calls of active or inactive are those of the source. The calls are words filed in the database; no cut-off is given here.

Legend:
Assay type in all cases: functional
Pseudomonas aeruginosa = assay: Antibacterial activity against Pseudomonas aeruginosa ATCC 9027 after 18 to 24 hrs
Staphylococcus aureus [1] = assay: Antibacterial activity against Staphylococcus aureus ATCC 25923 after 18 to 24 hrs
Staphylococcus aureus [2] = assay: Antibacterial activity against methicillin-resistant Staphylococcus aureus N315 after 18 to 24 hrs
Micrococcus luteus = assay: Antibacterial activity against Micrococcus luteus ATCC 4698 after 18 to 24 hrs; conditions: NCTC 2665
Bacillus spizizenii = assay: Antibacterial activity against Bacillus subtilis ATCC 6633 after 18 to 24 hrs
Escherichia coli = assay: Antibacterial activity against Escherichia coli ATCC 25922 after 18 to 24 hrs
Bacillus = assay: Antibacterial activity against Bacillus proteus ATCC 13315 after 18 to 24 hrs
[3] = Antibacterial activity against Eberthella typhosa ATCC 14028 after 18 to 24 hrs

SMILES	MIC (Pseudomonas aeruginosa)	MIC (Staphylococcus aureus [1])	MIC (Staphylococcus aureus [2])	MIC (Micrococcus luteus)	MIC (Bacillus spizizenii)	MIC (Escherichia coli)	MIC (Bacillus)	MIC [3]
CCn1cc(C(C)=O)c(=O)c2cc(F)c(N3CCCCC3)cc21	22.8 µg/mL (≈ 72.1 µM)	8.9 µg/mL (≈ 28.1 µM)	17.8 µg/mL (≈ 56.3 µM)	10.1 µg/mL (≈ 31.9 µM)	12.7 µg/mL (≈ 40.1 µM)	40.6 µg/mL (≈ 128 µM)	20.3 µg/mL (≈ 64.2 µM)	121 µg/mL (≈ 383 µM)
CCn1cc(-c2csc(N)n2)c(=O)c2ccc(C(F)(F)F)cc21	13.3 µg/mL (≈ 39.2 µM)	128 µg/mL (≈ 377 µM)	53.2 µg/mL (≈ 157 µM)	inactive	63.9 µg/mL (≈ 188 µM)	5.3 µg/mL (≈ 15.6 µM)	13.3 µg/mL (≈ 39.2 µM)	1.7 µg/mL (≈ 5.01 µM)
CCn1cc(-c2csc(N)n2)c(=O)c2cc(F)c(Cl)cc21	1.6 µg/mL (≈ 4.94 µM)	inactive	8 µg/mL (≈ 24.7 µM)	26.6 µg/mL (≈ 82.2 µM)	10.6 µg/mL (≈ 32.7 µM)	6.7 µg/mL (≈ 20.7 µM)	3.3 µg/mL (≈ 10.2 µM)	2.6 µg/mL (≈ 8.03 µM)
CCn1cc(-c2csc(N)n2)c(=O)c2cc(N3CCOCC3)c(Cl)cc21	170 µg/mL (≈ 435 µM)	0.8 µg/mL (≈ 2.05 µM)	255 µg/mL (≈ 653 µM)	128 µg/mL (≈ 327 µM)	255 µg/mL (≈ 653 µM)	128 µg/mL (≈ 327 µM)	inactive	95.7 µg/mL (≈ 245 µM)
CCn1cc(-c2csc(N)n2)c(=O)c2cc(Cl)cc(Cl)c21	2.3 µg/mL (≈ 6.76 µM)	3 µg/mL (≈ 8.82 µM)	inactive	16 µg/mL (≈ 47 µM)	2.7 µg/mL (≈ 7.94 µM)	21.2 µg/mL (≈ 62.3 µM)	3.3 µg/mL (≈ 9.7 µM)	2.7 µg/mL (≈ 7.94 µM)
CCn1cc(C(C)=O)c(=O)c2cc(F)c(N3CCCC3)cc21	12.7 µg/mL (≈ 42 µM)	5.1 µg/mL (≈ 16.9 µM)	50.9 µg/mL (≈ 168 µM)	244 µg/mL (≈ 808 µM)	244 µg/mL (≈ 809 µM)	43.3 µg/mL (≈ 143 µM)	33.1 µg/mL (≈ 109 µM)	122 µg/mL (≈ 404 µM)
CCn1cc(-c2csc(N)n2)c(=O)c2cc(C)ccc21	2.7 µg/mL (≈ 9.46 µM)	2.4 µg/mL (≈ 8.41 µM)	129 µg/mL (≈ 451 µM)	5.4 µg/mL (≈ 18.9 µM)	64.4 µg/mL (≈ 226 µM)	4.7 µg/mL (≈ 16.5 µM)	0.8 µg/mL (≈ 2.8 µM)	24.1 µg/mL (≈ 84.5 µM)
CCn1cc(-c2csc(N)n2)c(=O)c2cc(F)c(N3CCCCC3)cc21	42.7 µg/mL (≈ 115 µM)	64 µg/mL (≈ 172 µM)	53.3 µg/mL (≈ 143 µM)	inactive	42.7 µg/mL (≈ 115 µM)	128 µg/mL (≈ 344 µM)	37.3 µg/mL (≈ 100 µM)	74.7 µg/mL (≈ 201 µM)
CCn1cc(C(C)=O)c(=O)c2cc(F)c(N3CCN(C(=O)OC(C)(C)C)CC3)cc21	inactive	16 µg/mL (≈ 38.3 µM)	64 µg/mL (≈ 153 µM)	inactive	21.3 µg/mL (≈ 51 µM)	128 µg/mL (≈ 307 µM)	16 µg/mL (≈ 38.3 µM)	42.7 µg/mL (≈ 102 µM)
CCn1cc(-c2csc(N)n2)c(=O)c2cc(N3CCNCC3)c(Cl)cc21	10.7 µg/mL (≈ 27.4 µM)	8 µg/mL (≈ 20.5 µM)	inactive	32 µg/mL (≈ 82.1 µM)	2 µg/mL (≈ 5.13 µM)	128 µg/mL (≈ 328 µM)	6.4 µg/mL (≈ 16.4 µM)	8 µg/mL (≈ 20.5 µM)
CCn1cc(-c2csc(N)n2)c(=O)c2cc(N3CCCCC3)c(Cl)cc21	34.4 µg/mL (≈ 88.4 µM)	61.2 µg/mL (≈ 157 µM)	24.6 µg/mL (≈ 63.3 µM)	49 µg/mL (≈ 126 µM)	19.6 µg/mL (≈ 50.4 µM)	118 µg/mL (≈ 303 µM)	34.4 µg/mL (≈ 88.4 µM)	17.2 µg/mL (≈ 44.2 µM)
CCn1cc(-c2csc(N)n2)c(=O)c2cc(F)c(N3CCN(C(=O)OC(C)(C)C)CC3)cc21	8 µg/mL (≈ 16.9 µM)	64 µg/mL (≈ 135 µM)	10.7 µg/mL (≈ 22.6 µM)	32 µg/mL (≈ 67.6 µM)	42.7 µg/mL (≈ 90.2 µM)	10.7 µg/mL (≈ 22.6 µM)	2.6 µg/mL (≈ 5.49 µM)	5.3 µg/mL (≈ 11.2 µM)
CCn1cc(C(C)=O)c(=O)c2cc(F)c(N3CCOCC3)cc21	256 µg/mL (≈ 804 µM)	53.3 µg/mL (≈ 167 µM)	256 µg/mL (≈ 804 µM)	128 µg/mL (≈ 402 µM)	inactive	256 µg/mL (≈ 804 µM)	2.7 µg/mL (≈ 8.48 µM)	2.3 µg/mL (≈ 7.22 µM)
CCn1cc(-c2csc(N)n2)c(=O)c2cc(F)ccc21	13.3 µg/mL (≈ 46 µM)	128 µg/mL (≈ 442 µM)	inactive	18.7 µg/mL (≈ 64.6 µM)	3.3 µg/mL (≈ 11.4 µM)	24 µg/mL (≈ 82.9 µM)	10.7 µg/mL (≈ 37 µM)	21.3 µg/mL (≈ 73.6 µM)
CCn1cc(C(C)=O)c(=O)c2cc(N3CCCC3)c(Cl)cc21	9.3 µg/mL (≈ 29.2 µM)	18.7 µg/mL (≈ 58.7 µM)	16 µg/mL (≈ 50.2 µM)	10.7 µg/mL (≈ 33.6 µM)	10.7 µg/mL (≈ 33.6 µM)	26.7 µg/mL (≈ 83.8 µM)	64 µg/mL (≈ 201 µM)	18.7 µg/mL (≈ 58.7 µM)
